Assay [1] concerns the target Glycogen synthase kinase-3 alpha (Homo sapiens, UniProt P49840). The assay can be described thus: TR-FRET Assay. The essentials: (§1)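 TR-FRET readout: streptavidin-d2 (40 nM in added detection mix) plus Tb-anti-pSer641 Ab (2 nM in mix). Steps were 30 min compound preincubation, kinase reaction, then EDTA stop.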
In assay [2] the target is Glycogen synthase kinase-3 beta (Homo sapiens, UniProt P49841). Put plainly: TR-FRET Assay. A digest of the protocol: as §1
For orientation: TR-FRET usually uses a lanthanide donor and a delayed reading to cut background.

Several values for one entry are separate records, joined by “and”; a condition that tells them apart may be missing. Equal entries are not always repeated. A value given as a limit tells only on which side of the number the result lay.

Sequence of Glycogen synthase kinase-3 beta (P49841 whole entry): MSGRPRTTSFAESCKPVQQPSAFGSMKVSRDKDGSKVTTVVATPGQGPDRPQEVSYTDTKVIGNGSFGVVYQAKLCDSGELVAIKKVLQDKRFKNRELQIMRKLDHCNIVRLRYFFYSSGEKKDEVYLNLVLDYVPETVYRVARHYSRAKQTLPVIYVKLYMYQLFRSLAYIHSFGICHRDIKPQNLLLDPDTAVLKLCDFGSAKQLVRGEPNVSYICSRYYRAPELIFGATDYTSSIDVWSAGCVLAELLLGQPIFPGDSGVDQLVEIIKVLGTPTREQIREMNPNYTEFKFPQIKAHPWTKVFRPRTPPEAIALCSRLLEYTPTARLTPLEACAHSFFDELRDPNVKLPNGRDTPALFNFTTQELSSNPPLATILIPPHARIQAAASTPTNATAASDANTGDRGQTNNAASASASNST
Sequence of Glycogen synthase kinase-3 alpha (P49840 whole entry): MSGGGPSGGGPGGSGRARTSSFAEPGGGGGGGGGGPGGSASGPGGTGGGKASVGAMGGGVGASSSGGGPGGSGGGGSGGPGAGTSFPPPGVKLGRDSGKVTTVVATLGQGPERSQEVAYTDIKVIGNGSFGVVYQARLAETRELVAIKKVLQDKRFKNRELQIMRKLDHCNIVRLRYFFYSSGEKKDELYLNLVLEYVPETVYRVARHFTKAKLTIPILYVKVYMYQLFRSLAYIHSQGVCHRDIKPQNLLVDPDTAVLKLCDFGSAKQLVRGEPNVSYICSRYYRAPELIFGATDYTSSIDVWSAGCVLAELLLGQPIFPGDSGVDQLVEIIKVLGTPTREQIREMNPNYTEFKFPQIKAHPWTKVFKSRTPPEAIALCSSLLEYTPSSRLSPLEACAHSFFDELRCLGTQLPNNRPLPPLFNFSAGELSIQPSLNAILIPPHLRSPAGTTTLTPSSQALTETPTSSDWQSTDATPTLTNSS

The term IC50 denotes the concentration that gives 50% inhibition. The low end stands for greater potency in that assay, the high end for weaker potency in that assay. For the compound `CC[C@]1(c2cccc(-c3ccncc3)c2)C2=CN=NC2NC2=C1C(=O)CC(C)(C)[C@@H]2F` (some centres not stated) [US20250313563, Compound 959341], the IC50 in assay [1] lay in the range of 1 to 5 µM; in assay [2], 0.1 to 1 µM.
`Cc1ccc(C)c(C(=O)N2CC3(C2)CC2(CO3)C3=C(N=NC3)NC3=C2C(=O)CC(C)(C)C3)c1` (configuration not stated) [US20250313563, Compound 947285]: the IC50 in assay [1] is under 0.1 µM; in assay [2] it was 0.1 to 1 µM.
For `CC1(C)CC(=O)C2=C(C1)NC1=C(CN=N1)C21CCS(=O)(=O)CC1` [US20250313563, Compound 896013] the same measures were 0.1 to 1 µM and 0.1 to 1 µM.
For `CC[C@@]1(c2cccc(N(C)c3cccc(OC)n3)c2)C2=CN=NC2NC2=C1C(=O)CC(C)(C)C2` (some centres not stated) [US20250313563, Compound 932666] the same measures were under 0.1 µM and 0.1 to 1 µM.
Take `Cn1ccc(S(=O)(=O)N2CCC[C@]3(CC2)C2=CN=NC2NC2=C3C(=O)CC(C)(C)C2)n1` (some centres not stated) [US20250313563, Compound 932640]: the IC50 in assay [1] and in assay [2] was under 0.1 µM throughout.
Take `CC[C@@]1(c2cccc(-c3cnn(C(F)F)c3)c2)C2=CN=NC2NC2=C1C(=O)NC(C)(C)C2` (some centres not stated) [US20250313563, Compound 950254]: the IC50 was under 0.1 µM in assay [1] and 1 to 5 µM in assay [2].
For `CCC1(c2cccc(-c3cn(C)nc3C)c2)C2=C(CC(C)(C)NC2=O)NC2N=NC(C(F)F)=C21` (configuration not stated) [US20250313563, Compound 949170], the IC50 in assay [1] and in assay [2] was under 0.1 µM throughout.
For the compound `CCC1(c2cccc(Cl)c2)C2=C(CC(C)(C)CC2=O)NC2N=NC(C)=C21` (configuration not stated) [US20250313563, Compound 789336], the values for the IC50 in assay [1] and in assay [2] were under 0.1 µM and 0.1 to 1 µM, respectively.
Consider `CC1(C)CC(=O)C2=C(C1)NC1=C(CN=N1)C21CN(S(=O)(=O)Cc2ccccc2)C1` [US20250313563, Compound 943543], for which the IC50 in assay [1] and in assay [2] was under 0.1 µM in each case.
For the compound `CC[C@]1(c2ccccc2)C2=CN=NC2NC2=C1C(=O)[C@H](C)C[C@H]2C` (some centres not stated) [US20250313563, Compound 865199], the IC50 in assay [1] is 1 to 5 µM; in assay [2] it was over 5 µM.
`CC1(C)CC(=O)C2=C(C1)NC1=C(CN=N1)[C@@]2(C)c1cccc(-c2ccccc2)c1` [US20250313563, Compound 801366]: the IC50 in assay [1] and in assay [2] was over 5 µM in each case.
Turning to `CC[C@@]1(c2cccc(-c3cnn(-c4cnccn4)c3)c2)C2=CN=NC2NC2=C1C(=O)NC(C)(C)C2` (some centres not stated) [US20250313563, Compound 952207], the results for the IC50 in assay [1] and in assay [2] were 0.1 to 1 µM and 1 to 5 µM, respectively.
Turning to `CC[C@]1(c2cccc(-c3ccnc(C(F)F)c3)c2)C2=CN=NC2NC2=C1C(=O)CC(C)(C)C2` (some centres not stated) [US20250313563, Compound 943915], the IC50 in assay [1] and in assay [2] was over 5 µM each time.
As for `CCC1(c2cccc(N(C(C)=O)C(C)C)c2)C2=CN=NC2NC2=C1C(=O)CC(C)(C)C2` (configuration not stated) [US20250313563, Compound 893305], the IC50 in assay [1] and in assay [2] was under 0.1 µM each time.
For the compound `C[C@@H]1C[C@H](C)C[C@@]2(C1)C1=C(N=NC1)NC1=C2C(=O)CC(C)(C)C1` [US20250313563, Compound 884114], the IC50 in assay [1] and in assay [2] was 0.1 to 1 µM throughout.
On to `CC[C@@]1(c2cccc(-c3cnn(Cc4cccc(F)c4F)c3)c2)C2=CN=NC2NC2=C1C(=O)NC(C)(C)C2` (some centres not stated) [US20250313563, Compound 951840], for which the IC50 in assay [1] was under 0.1 µM; in assay [2] it was 0.1 to 1 µM.
For `CC[C@@]1(c2cccc(N(C)C(=O)c3ccn(C)n3)c2)C2=CN=NC2NC2=C1C(=O)CC(C)(C)C2` (some centres not stated) [US20250313563, Compound 929442] the same measures were under 0.1 µM and 0.1 to 1 µM.
For `CC[C@@]1(c2ccccc2)C2=CN=NC2NC2=C1C(=O)C[C@](C)(COC)C2` (some centres not stated) [US20250313563, Compound 816873] the same measures were 0.1 to 1 µM and 1 to 5 µM.
In the case of `CC[C@@]1(c2cccc(-c3cnc4n3CCCC4)c2)C2=CN=NC2NC2=C1C(=O)CC(C)(C)C2` (some centres not stated) [US20250313563, Compound 945607], the IC50 is < 0.1 µM and 1 to 5 µM in assay [1]; 0.1 to 1 µM and > 5 µM in assay [2].
As to `COc1cccc(S(=O)(=O)N2CC[C@@]3(C2)C2=C(N=NC2)NC2=C3C(=O)CC(C)(C)C2)c1` [US20250313563, Compound 951789], the IC50 in assay [1] and in assay [2] was 0.1 to 1 µM each time.
On to `CC[C@@]1(c2cccc(S(=O)(=O)CCOC)c2)C2=CN=NC2NC2=C1C(=O)CC(C)(C)C2` (some centres not stated) [US20250313563, Compound 943546], for which the half-maximal inhibitory concentration (IC50) in assay [1] was 1 to 5 µM; in assay [2], over 5 µM.
For `CC[C@@]1(c2cc(-c3ccnc(C)c3)ccc2F)C2=CN=NC2NC2=C1C(=O)CC(C)(C)C2` (some centres not stated) [US20250313563, Compound 909213], the IC50 in assay [1] and in assay [2] was over 5 µM throughout.
Turning to `CC[C@@]1(c2cccc(C3=CN=NC3)c2)C2=C(CC(C)(C)NC2=O)NC2N=NC(C(F)(F)F)=C21` (some centres not stated) [US20250313563, Compound 948312], the values for the IC50 in assay [1] and in assay [2] were under 0.1 µM and 0.1 to 1 µM, respectively.
For the compound `CCC1(c2cccc(-c3cnco3)c2)C2=CN=NC2NC2=C1C(=O)CC(C)(C)C2` (configuration not stated) [US20250313563, Compound 944025], the IC50 in assay [1] is under 0.1 µM; in assay [2], 0.1 to 1 µM.
For the compound `CC[C@@]1(c2cccc(N3C[C@H](C)[C@@H](C)C3)c2)C2=CN=NC2NC2=C1C(=O)CC(C)(C)C2` (some centres not stated) [US20250313563, Compound 924520], the IC50 in assay [1] and in assay [2] was over 5 µM in each case.
Consider `CCC1(c2cccc(N(C)c3ccc(F)nc3)c2)C2=CN=NC2NC2=C1C(=O)CC(C)(C)C2` (configuration not stated) [US20250313563, Compound 917152], for which the figures for the IC50 in assay [1] and in assay [2] were under 0.1 µM and 0.1 to 1 µM, respectively.
On to `CCC1(c2cccc(-c3ccnc(C)c3C)c2)C2=CN=NC2NC2=C1C(=O)CC(C)(C)C2` (configuration not stated) [US20250313563, Compound 913347], for which the IC50 in assay [1] and in assay [2] was under 0.1 µM throughout.
Take `CC[C@]1(c2cccc(-c3cn(C)nc3C)c2)C2=CN=NC2NC2=C1C(=O)NC(C)(C)C2` (some centres not stated) [US20250313563, Compound 945480]: the IC50 was 1 to 5 µM in assay [1] and over 5 µM in assay [2].
Turning to `CC[C@]1(c2cccc(-c3ccncc3C)c2)C2=CN=NC2NC2=C1C(=O)N[C@@]1(CCCOC1)C2` (some centres not stated) [US20250313563, Compound 947912], the IC50 in assay [1] was in the range of 0.1 to 1 µM; in assay [2], 1 to 5 µM.
As for `CC[C@]1(c2cccc(N(C)c3ccc(F)nc3)c2)C2=CN=NC2NC2=C1C(=O)CC(C)(C)C2` (some centres not stated) [US20250313563, Compound 932647], the figures for the IC50 in assay [1] and in assay [2] were under 0.1 µM and 0.1 to 1 µM, respectively.
As to `CC1(C)CC(=O)C2=C(C1)NC1=C(CN=N1)[C@]21CCN(S(=O)(=O)c2cccc(F)c2)C1` [US20250313563, Compound 943488], the IC50 in assay [1] and in assay [2] was under 0.1 µM each time.
As for `CC[C@@]1(c2cccc(N(C)c3ccnnc3)c2)C2=CN=NC2NC2=C1C(=O)CC(C)(C)C2` (some centres not stated) [US20250313563, Compound 915630], the figures for the IC50 in assay [1] and in assay [2] were 0.1 to 1 µM and 1 to 5 µM, respectively.
For `CC1(C)CC(=O)C2=C(C1)NC1N=NC=C1C21CCCN(c2ccncn2)CC1` (configuration not stated) [US20250313563, Compound 917145], the IC50 in assay [1] and in assay [2] was 1 to 5 µM in each case.
With `CC[C@@]1(c2cccc(S(=O)(=O)C3CC3)c2)C2=CN=NC2NC2=C1C(=O)NC(C)(C)C2` (some centres not stated) [US20250313563, Compound 945999], the IC50 in assay [1] and in assay [2] was under 0.1 µM each time.
On to `CCC1(c2cccc(Oc3ncccn3)c2)C2=C(CC(C)(C)NC2=O)NC2N=NC(Cl)=C21` (configuration not stated) [US20250313563, Compound 950318], for which the IC50 in assay [1] and in assay [2] was under 0.1 µM each time.
As to `CC[C@@]1(c2cccc(C3CC3)c2)C2=CN=NC2NC2=C1C(=O)NC(C)(C)C2` (some centres not stated) [US20250313563, Compound 950828], the IC50 was < 0.1 µM and 1 to 5 µM in assay [1]; over 5 µM in assay [2].
Consider `Cc1cccc(S(=O)(=O)N2CC[C@]3(C2)C2=C(N=NC2)NC2=C3C(=O)CC(C)(C)C2)c1` [US20250313563, Compound 951864], for which the IC50 in assay [1] was under 0.1 µM; in assay [2] it was < 0.1 µM and 1 to 5 µM.
With `CCC1(c2cccc(C(F)F)c2)C2=CN=NC2NC2=C1C(=O)CC(C)(C)C2` (configuration not stated) [US20250313563, Compound 819564], the half-inhibitory concentration (IC50) in assay [1] and in assay [2] was under 0.1 µM throughout.
Take `CC[C@@]1(c2cccc(-c3cc(C(C)C)nn3C)c2)C2=CN=NC2NC2=C1C(=O)NC(C)(C)C2` (some centres not stated) [US20250313563, Compound 951842]: the IC50 is 0.1 to 1 µM in assay [1] and 1 to 5 µM in assay [2].
The matching figures for `Cc1ccc(S(=O)(=O)N2CCC3(CC2)C2=C(N=NC2)NC2=C3C(=O)CC(C)(C)C2)cc1Cl` [US20250313563, Compound 947241]: under 0.1 µM and under 0.1 µM.
As for `CC1(C)CC(=O)C2=C(C1)NC1=C(CN=N1)[C@]21CCO[C@H](C(F)(F)F)C1` [US20250313563, Compound 884023], the IC50 was 1 to 5 µM in assay [1] and over 5 µM in assay [2].
On to `CCC1(c2cccc(-c3ccnc(OC(F)F)c3)c2)C2=CN=NC2NC2=C1C(=O)CC(C)(C)C2` (configuration not stated) [US20250313563, Compound 932629], for which the IC50 is under 0.1 µM in assay [1] and 0.1 to 1 µM in assay [2].
Regarding `CC[C@@]1(c2ccc(OC(C)C)cc2)C2=C(CC(C)(C)CC2=O)NC2N=NC(C(F)(F)F)=C21` (some centres not stated) [US20250313563, Compound 947873], the IC50 in assay [1] and in assay [2] was 0.1 to 1 µM in each case.
Regarding `CCC1(c2cccc(S(=O)(=O)CC)c2)C2=CN=NC2NC2=C1C(=O)CC(C)(C)C2` (configuration not stated) [US20250313563, Compound 889579], the IC50 in assay [1] and in assay [2] was under 0.1 µM in each case.
For `CC[C@@]1(c2cccc(-c3cc(OC)ncc3F)c2)C2=CN=NC2NC2=C1C(=O)NC(C)(C)C2` (some centres not stated) [US20250313563, Compound 949109], the IC50 in assay [1] is under 0.1 µM; in assay [2], 0.1 to 1 µM.
As for `CC1(C)CC(=O)C2=C(C1)NC1=C(CN=N1)[C@]21COC2(CN(C(=O)[C@@H]3CC3(F)F)C2)C1` [US20250313563, Compound 948219], the 50% inhibitory concentration (IC50) in assay [1] is < 0.1 µM and 0.1 to 1 µM; in assay [2], < 0.1 µM and 1 to 5 µM.

For the origin of these results see BindingDB's records for patent US20250313563 (The Broad Institute, 2025).
